Experimental data published in publication PMC1838960, “Inhibition of Hippocampal Matrix Metalloproteinase-3 and -9 Disrupts Spatial Memory” (Neural Plasticity, 2006).

Tests used:
[1] = test system: late-phase of long-term potentiation (LTP); conditions: ref [27]; cited from earlier work
Excerpt: (§1) The potential contribution of ECM remodeling to learning and memory has only recently been addressed. Our laboratory has focused on hippocampal mediated spatial memory and measured elevations in hippocampal MMP-3 and MMP-9 during acquisition of the Morris water maze task.

[2] = icv, 7.2 mM stock, 10 μL (35 μg) twice, cumulative 70 μg; ref [27]; cited from earlier work
Excerpt: as §1

[3] = test system: cell nuclei of hippocampal sections; assay: Cell nuclei (DAPI) appearance in hippocampal sections, cellular toxicity; set-up: species or system rat; conditions: 14.4 mM; vs PBS
Experimental: (§2) Naïve rats were euthanized by decapitation, their brains were sectioned (10 μm) using a cryostat and the sections were mounted on slides and stored at −80°C for no longer than a week. These sections were warmed to room temperature for 10 minutes and preincubated for 3 hours in either PBS (pH 7.4 control) or 14.4 mM FN-439 in PBS at 37°C. The control slides were then incubated for an additional hour with DQ-gelatin-FITC (DQ, Molecular Probes, Eugene, Ore) and the treated slides were incubated with DQ containing 14.4 mM FN-439 for 1 additional hour. Following incubation, the slides were washed in PBS, fixed with 4% paraformaldehyde in PBS, and cover slipped using prolong antifade mounting medium containing DAPI (Molecular Probes, Eugene, Ore). The slides were examined using a Zeiss Axioplan 2I microscope using epifluorescent illumination and appropriate filter sets for visualizing DQ (FITC) and DAPI (UV) fluorescence. Images were captured at 100–200X magnification using a Kodak DC290 digital camera and Photoshop software (Adobe Systems Inc, San Jose, Calif).

[4] = Morris water maze task, probe trial; type: in vivo, male Sprague-Dawley rats; conditions: for time spent in the target quadrant: 70 μg/day cumulative, 120-s probe trial on day 8, mean ± SEM
Excerpt: The protocols utilized in this investigation minimized pain and discomfort, were approved by the Washington State University Institutional Animal Care and Use Committee, and conformed to the guidelines for the care and use of laboratory animals as required by the National Institutes of Health Guide for the Care and Use of Laboratory Animals (NIH Publication No. 80-23). Male Sprague-Dawley rats (300–350 g, breeding stock derived from Taconic, Germantown, NY) were adapted to a 12-hour light/dark cycle initiated at 0600 hour in the American Association for the Accreditation of Laboratory Animal Care approved vivarium at a temperature of 21 ± 1°C. The animals were housed in pairs and provided with water and food (Harlan Teklad F6 Rodent Diet, Madison, WI) ad libitum except the night prior to surgery when food was withheld. Each animal was prepared with bilateral guide cannulas targeting either the dorsal hippocampi (flat skull coordinates relative to bregma: post: −4.0 mm, lat: ±2.5 mm from midline) or lateral ventricles (post: 1.0 mm, lat: ±1.5 mm from midline) under ketamine-xylazine anesthesia (100 and 2 mg/kg, resp., intramuscularly). The guide was constructed from PE-60 tubing (Clay Adams, Parsippany, NJ) with a heat bulge that rested on top of the cranium thus serving as a stop to further penetration. The total length of the guide was 2.5 cm with a distance from the beveled tip to the heat bulge of 2.0 and 2.5 mm for the dorsal hippocampus and icv, respectively. All infusions were made using a 30-gauge stainless-steel tubing injector with a beveled end that protruded 2.0 mm beyond the tip of the PE guide cannula. The injector was attached to a 10 μL Hamilton syringe by PE-20 tubing. The animals were hand gentled for 5 minutes per day during the 7 days of recovery from surgery. […]
The Morris water maze task was used to test spatial memory acquisition. […] Swim speed was determined from these values. […]

[5] = molecular target: T1, MMP-9 (gelatinase B) catalytic domain (Homo sapiens, UniProt P14780); assay: MMP fluorescence enzyme assay, MMP-9 catalytic domain; type: biochemical
T1 construct: Catalytic domains for MMP-3 and -9 were used; purchased Biomol International LP
T1 sequence (P14780 107-457 limits assumed): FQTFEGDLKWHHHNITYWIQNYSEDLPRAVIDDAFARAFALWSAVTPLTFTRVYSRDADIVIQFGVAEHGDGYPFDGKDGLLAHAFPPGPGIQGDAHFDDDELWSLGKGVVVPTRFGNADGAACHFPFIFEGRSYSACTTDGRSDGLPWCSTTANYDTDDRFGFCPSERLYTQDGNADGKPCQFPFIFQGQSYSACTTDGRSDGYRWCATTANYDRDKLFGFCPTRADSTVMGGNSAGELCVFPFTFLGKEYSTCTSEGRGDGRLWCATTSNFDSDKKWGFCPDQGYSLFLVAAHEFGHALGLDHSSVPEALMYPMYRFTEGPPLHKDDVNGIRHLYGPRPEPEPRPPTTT
Experimental: (§3) Enzyme assays for MMP activity were conducted in black 96-well plates according to manufacturer instructions (Biomol International LP, Plymouth Meeting, Pa). Catalytic domains for MMP-3 and -9 were used with the fluorogenic peptide substrate: Mca-Pro-Leu-Gly-Leu-Dpa-Ala-Arg-NH2. Solutions were preincubated with FN-439 for 30 minutes at 37°C. Subsequently, the fluorogenic peptide substrate was added and fluorescence was measured at 10-minute intervals for one hour using a Perkin-Elmer plate reader. Slopes were derived from the linear portion of the curves and background slopes were subtracted from all samples. The slopes were normalized as percent of enzyme activity compared with activity in the absence of inhibitor. IC50 values were extrapolated using quadratic and sigmoidal curve fit programs for each sample and were averaged.

MMP-9 = conditions: 7.2 mM stock in aCSF infused over 30 min, 100 μL (350 μg); vs aCSF control; ref Reeves et al. [19]; cited from earlier work
[6] = test system: MMP-2 and MMP-9 gelatinase activity in the hippocampus; assay: In situ zymography of hippocampal sections (DQ-gelatin-FITC); set-up: species or system rat; conditions: 14.4 mM, 3 h preincubation at 37°C plus 1 h with DQ-gelatin, vs PBS
Experimental: as §2

[7] = Morris water maze task, acquisition training; type: in vivo, male Sprague-Dawley rats; conditions: for positive thigmotaxis (ratio of time near the wall to total trial time), day 8 / day 8 latency to find the platform / day 8 distance swum to find the platform: 70 μg/day cumulative; for day 8 latency to find the platform / day 8 distance swum to find the platform: mean ± SEM; for day 8 latency to find the platform: n = 8; for overall swim speed during the 8 days of training: no difference; for distance to find the platform, representative rat / latency to find the platform, representative rat: single rat, day 8 trial
Excerpt: The protocols utilized in this investigation minimized pain and discomfort, were approved by the Washington State University Institutional Animal Care and Use Committee, and conformed to the guidelines for the care and use of laboratory animals as required by the National Institutes of Health Guide for the Care and Use of Laboratory Animals (NIH Publication No. 80-23). Male Sprague-Dawley rats (300–350 g, breeding stock derived from Taconic, Germantown, NY) were adapted to a 12-hour light/dark cycle initiated at 0600 hour in the American Association for the Accreditation of Laboratory Animal Care approved vivarium at a temperature of 21 ± 1°C. The animals were housed in pairs and provided with water and food (Harlan Teklad F6 Rodent Diet, Madison, WI) ad libitum except the night prior to surgery when food was withheld. Each animal was prepared with bilateral guide cannulas targeting either the dorsal hippocampi (flat skull coordinates relative to bregma: post: −4.0 mm, lat: ±2.5 mm from midline) or lateral ventricles (post: 1.0 mm, lat: ±1.5 mm from midline) under ketamine-xylazine anesthesia (100 and 2 mg/kg, resp., intramuscularly). The guide was constructed from PE-60 tubing (Clay Adams, Parsippany, NJ) with a heat bulge that rested on top of the cranium thus serving as a stop to further penetration. The total length of the guide was 2.5 cm with a distance from the beveled tip to the heat bulge of 2.0 and 2.5 mm for the dorsal hippocampus and icv, respectively. All infusions were made using a 30-gauge stainless-steel tubing injector with a beveled end that protruded 2.0 mm beyond the tip of the PE guide cannula. The injector was attached to a 10 μL Hamilton syringe by PE-20 tubing. The animals were hand gentled for 5 minutes per day during the 7 days of recovery from surgery. Those animals prepared with dorsal hippocampus guide cannulas were randomly assigned to one of two groups (8 rats each) that received either FN-439 or artificial cerebrospinal fluid vehicle (aCSF; in mM: 124 NaCl, 3 KCl, 1.24 […], 1.3 MgSO4, 2.0 CaCl2, 26 NaHCO3, and 10 D-glucose). Those animals prepared with icv cannulas were similarly assigned.
Our laboratory previously used a 7.2 mM stock in aCSF icv infused over 5 minutes to a total volume of 10 μL (35 μg) 10 minutes prior to behavioral testing, and again 3 hours post-testing (cumulative dose = 70 μg). Presently, we utilized a 14.4 mM stock in aCSF infused over 1 minute to a total volume of 5 μL, that is, 2.5 μL for each side (17.5 μg in 2.5 μL aCSF/min) 20 minutes prior to behavioral testing (5 trials), and again 10 minutes after testing (cumulative dose = 70 μg) each day. The protocol used for icv infusion was 35 μg in 5 μL aCSF infused over 1 minute, 20 minutes prior to testing and again 10 minutes following testing (cumulative dose = 70 μg). Behavioral testing in the Morris water maze task was conducted by an experimenter blind to the treatment of each animal.
The Morris water maze task was used to test spatial memory acquisition. This protocol has been described in detail. Briefly, each trial entailed placing the animal into the water facing the wall of the pool (1.6 m in diameter painted black, filled to a depth of 30 cm) at one of four locations (North (N), South (S), East (E), and West (W)) and tracking its swimming path and duration (Chromatrac; San Diego Instruments, San Diego, Calif) until the submerged platform was found (12 cm in diameter painted black, 2 cm below the surface). Swim speed was determined from these values. If the animal located the platform within 120 seconds it was permitted 30 seconds on the platform before the next trial commenced. […] The animal's entry point was randomized on each trial, and the location of the platform was randomly assigned to one of the four quadrants and remained fixed for each animal throughout training (5 trials/day for 8 days). At the conclusion of the 5 acquisition trials on day 8 each animal was administered one probe trial. […]

[8] = test system: LTP in the sprouting crossed temporodentate pathway; conditions: icv 350 μg, following unilateral lesions of the entorhinal cortex; ref Reeves et al. [19]; cited from earlier work
HSF stromelysin = conditions: ref Odake et al. [37], read-out: IC50 against stromelysin; cited from earlier work
Excerpt: (§4) There are at least two possible explanations for these differences. First, Odake and colleagues used HSF stromelysin and HG gelatinase as substrates, while we used MMP-3 (stromelyisin-1) and MMP-9 (gelatinase B). Secon ...

HG gelatinase = conditions: ref Odake et al. [37], read-out: IC50 against gelatinase; cited from earlier work
Excerpt: as §4

[9] = molecular target: T2, MMP-3 (stromelysin-1) catalytic domain (Homo sapiens, UniProt P08254); assay: MMP fluorescence enzyme assay, MMP-3 catalytic domain; type: biochemical
T2 construct: Catalytic domains for MMP-3 and -9 were used; purchased Biomol International LP
T2 sequence (P08254 100-272 limits assumed): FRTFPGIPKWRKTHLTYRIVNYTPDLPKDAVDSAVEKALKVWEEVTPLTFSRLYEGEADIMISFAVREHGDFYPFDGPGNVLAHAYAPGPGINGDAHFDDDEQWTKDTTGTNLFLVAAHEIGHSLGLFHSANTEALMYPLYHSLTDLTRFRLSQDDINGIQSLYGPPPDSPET
Experimental: as §3

[10] = catalytic domain, substrate Mca-Pro-Leu-Gly-Leu-Dpa-Ala-Arg-NH2, 30 min preincubation at 37°C, fluorescence at 10-min intervals for one hour, mean ± SEM

## CC(C)C[C@@H](NC(=O)[C@@H]1CCCN1C(=O)CNC(=O)c1ccc(N)cc1)C(=O)N[C@H](C)C(=O)NO [FN-439, 4-Abz-Gly-Pro-D-Leu-D-Ala-OH]
[1]
  late-phase of long-term potentiation (LTP): interfered with the late-phase of long-term potentiation
[2]
  acquisition of the Morris water maze task: disrupted the acquisition of the Morris water maze task
[3]
  cellular toxicity (blue fluorescence of cell nuclei): no cellular toxicity
[4]; dorsal hippocampus, aCSF hippocampus 40.7 ± 2.2 s
  time spent in the target quadrant: 34.3 ± 2.7 s
[4]; hippocampus or icv, probe trial day 8, groups compared incl. aCSF (F3,28 = 0.98, P > .10)
  number of entries into the target quadrant: no differences
[4]; icv, aCSF icv 47.1 ± 4.0 s
  time spent in the target quadrant: 28.4 ± 0.8 s
[5]; [10]
  IC50: 210 ± 37.8 µM
[5]; in vitro fluorescence assay
  specificity for the MMP-9 catalytic domain (in words): good specificity
MMP-9
  inhibition of MMP-9 activity: 83.6%
[6]; dentate gyrus
  inhibition of MMP-2 and MMP-9 in the hippocampus: significantly inhibited
[6]
  basal activity of MMP-9 (green fluorescence): significantly reduced
[7]; bilateral into dorsal hippocampi or icv, 8 days, vs aCSF
  acquisition of the Morris water maze task (in words): significantly interfered with the acquisition of the task
[7]; dorsal hippocampus, aCSF hippocampus 0.17 ± 0.06
  positive thigmotaxis (ratio of time near the wall to total trial time), day 8: 0.37 ± 0.09
[7]; dorsal hippocampus, bilateral, aCSF hippocampus 13.4 ± 1.0 s
  day 8 latency to find the platform: 37.9 ± 8.4 s
[7]; dorsal hippocampus, bilateral, aCSF hippocampus 4.2 ± 0.5 m
  day 8 distance swum to find the platform: 12.1 ± 2.9 m
[7]; dorsal hippocampus, aCSF hippocampus 0.30 ± 0.02 m/s
  overall swim speed during the 8 days of training: 0.32 ± 0.02 m/s
[7]; hippocampus or icv, vs aCSF, P < .05
  latencies to find the platform on days 5–8 (in words): significantly longer latencies
[7]; icv, aCSF icv 0.14 ± 0.05
  positive thigmotaxis (ratio of time near the wall to total trial time), day 8: 0.45 ± 0.11
[7]; icv, aCSF icv 14.3 ± 1.9 s
  day 8 latency to find the platform: 44.4 ± 10.7 s
[7]; icv, aCSF icv 5.8 ± 0.7 m
  day 8 distance swum to find the platform: 12.9 ± 2.7 m
[7]; icv, aCSF icv 0.31 ± 0.02 m/s
  overall swim speed during the 8 days of training: 0.31 ± 0.02 m/s
[7]; interference with acquisition of the Morris water maze task
  dorsal hippocampus infusion compared with icv delivery (in words): equivalently effective
[7]; dorsal hippocampus, aCSF rat 5.9 m
  distance to find the platform, representative rat: 17.9 m
[7]; dorsal hippocampus, aCSF rat 15 s
  latency to find the platform, representative rat: 38.3 s
[7]; icv, aCSF rat 4.7 m
  distance to find the platform, representative rat: 14.8 m
[7]; icv, aCSF rat 13.3 s
  latency to find the platform, representative rat: 43.9 s
[8]
  LTP in the sprouting pathway: lack the ability to demonstrate LTP in the sprouting pathway
HSF stromelysin
  IC50: 150 µM
HG gelatinase
  IC50: 30 µM
[9]; [10]
  IC50: 16.2 ± 7.8 µM
[9]; in vitro fluorescence assay
  effect upon the MMP-3 catalytic domain (in words): maximal effect
